Reference: patent US20240336642A1 (The General Hospital Corporation, priority 2021, published 2024)
Counter-ions that a name gives are not always drawn.

Molecular target: h12/15-LOX (Homo sapiens (Human), UniProt P16050)
Assay: 12/15-LOX enzyme inhibition IC50 assay (Examples 1 and 2)
Assay type: biochemical
Conditions: for Emax: h12/15-LOX, read-out: Max % inhibition
Method: Enzyme was then added to the cuvettes. […] The % inhibition for each test compound concentration were calculated as follows: […]

Chain of h12/15-LOX (P16050 whole entry): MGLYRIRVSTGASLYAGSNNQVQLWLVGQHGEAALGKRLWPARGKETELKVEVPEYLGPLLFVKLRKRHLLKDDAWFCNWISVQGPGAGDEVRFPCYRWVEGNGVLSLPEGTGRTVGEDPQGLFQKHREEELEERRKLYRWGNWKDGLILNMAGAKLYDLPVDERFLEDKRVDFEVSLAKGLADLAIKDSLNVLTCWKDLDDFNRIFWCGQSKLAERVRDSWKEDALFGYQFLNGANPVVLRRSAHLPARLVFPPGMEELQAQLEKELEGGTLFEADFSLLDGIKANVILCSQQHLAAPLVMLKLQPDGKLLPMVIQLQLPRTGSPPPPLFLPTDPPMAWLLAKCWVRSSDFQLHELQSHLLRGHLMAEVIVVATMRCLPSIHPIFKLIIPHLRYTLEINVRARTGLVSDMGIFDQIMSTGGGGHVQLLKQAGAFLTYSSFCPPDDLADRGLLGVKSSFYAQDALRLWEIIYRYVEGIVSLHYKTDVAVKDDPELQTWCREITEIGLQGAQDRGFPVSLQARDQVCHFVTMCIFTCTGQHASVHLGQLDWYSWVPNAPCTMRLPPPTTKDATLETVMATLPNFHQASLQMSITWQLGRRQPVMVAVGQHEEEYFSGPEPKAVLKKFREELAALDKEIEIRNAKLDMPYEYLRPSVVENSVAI

IC50 [nM] | Emax [%] | Structure (SMILES)
63 | 85 | CNc1oc(-c2cc(Cl)cc(Cl)c2C)nc1C#N [Compound 2, 2-(3,5-Dichloro-2-methylphenyl)-5-(methylamino)oxazole-4-carbonitrile]
330 | 88 | CNc1oc(-c2cc(Cl)cc(Cl)c2F)nc1C#N [Compound 3, 2-(3,5-Dichloro-2-fluorophenyl)-5-(methylamino)oxazole-4-carbonitrile]
– | 67 | CNc1oc(-c2cc(Cl)cc(Cl)c2OC(F)F)nc1C#N [Compound 4]
180 | 92 | CNc1oc(-c2cc(Cl)cc(Cl)c2OC)nc1C#N [Compound 5, 2-(3,5-Dichloro-2-methoxyphenyl)-5-(methylamino)oxazole-4-carbonitrile]
– | 71 | CNc1oc(-c2cc(Cl)cc(OC)c2Cl)nc1C#N [Compound 9]
110 | 88 | C=CCNc1oc(-c2cc(Cl)cc(Cl)c2Cl)nc1C#N [Compound 14, 5-(allylamino)-2-(2,3,5-trichlorophenyl)oxazole-4-carbonitrile]
170 | 92 | C/C=C/CNc1oc(-c2cc(Cl)cc(Cl)c2Cl)nc1C#N [Compound 15, (E)-5-(But-2-en-1-ylamino)-2-(2,3,5-trichlorophenyl)oxazole-4-carbonitrile]
2000 | 90 | N#Cc1nc(-c2cc(Cl)cc(Cl)c2OC(F)F)oc1NCCCCO [Compound 18, 2-(3,5-Dichloro-2-(difluoromethoxy)phenyl)-5-((4-hydroxybutyl)amino)oxazole-4-carbonitrile]
460 | 68 | Cc1c(Cl)cc(Cl)cc1-c1nc(C#N)c(NCCCCO)o1 [Compound 19, 2-(3,5-Dichloro-2-methylpheny1)-5-((4-hydroxybutyl)amino)oxazole-4-carbonitrile]
2000 | 97 | N#Cc1nc(-c2cc(Cl)cc(Cl)c2OC(F)F)oc1NCCCCCO [Compound 23, 2-(3,5-Dichloro-2-(difluoromethoxy)phenyl)-5-((5-hydroxypentyl)amino)oxazole-4-carbonitrile]
320 | 80 | Cc1c(Cl)cc(Cl)cc1-c1nc(C#N)c(NCCCCCO)o1 [Compound 24, 2-(3,5-Dichloro-2-methylphenyl)-5-((5-hydroxypentyl)amino)oxazole-4-carbonitrile]
– | 38 | N#Cc1nc(-c2cc(Cl)cc(Cl)c2F)oc1NCCCCCO [Compound 25]
800 | 100 | Cc1cc(Cl)cc(-c2nc(C#N)c(NCCCCCO)o2)c1Cl [Compound 26, 2-(2,5-Dichloro-3-methylphenyl)-5-((5-hydroxypentyl)amino)oxazole-4-carbonitrile]
3000 | 100 | N#Cc1nc(-c2cc(Cl)cc(Cl)c2OC(F)F)oc1NCCOCCO [Compound 29, 2-(3,5-Dichloro-2-(difluoromethoxy)phenyl)-5-((2-(2-hydroxyethoxy)ethyl)amino)oxazole-4-carbonitrile]
– | 100 | Cc1c(Cl)cc(Cl)cc1-c1nc(C#N)c(NCCOCCO)o1 [Compound 30]
2400 | 99 | N#Cc1nc(-c2cc(Cl)cc(C(F)(F)F)c2Cl)oc1NCCOCCO [Compound 31, 2-(2,5-Dichloro-3-(trifluoromethyl)phenyl)-5-((2-(2-hydroxyethoxy)ethyl)amino)oxazole-4-carbonitrile]
650 | 100 | COCCOCCNc1oc(-c2cc(Cl)cc(Cl)c2OC(F)F)nc1C#N [Compound 33, 2-(3,5-Dichloro-2-(difluoromethoxy)phenyl)-5-((2-(2-methoxyethoxy)ethyl)amino)oxazole-4-carbonitrile]
– | 100 | COCCOCCNc1oc(-c2cc(Cl)cc(Cl)c2C)nc1C#N [Compound 34]
3000 | 100 | COCCOCCNc1oc(-c2cc(Cl)cc(Cl)c2F)nc1C#N [Compound 35, 2-(3,5-Dichloro-2-fluorophenyl)-5-((2-(2-methoxyethoxy)ethyl)amino)oxazole-4-carbonitrile]
1100 | 100 | COCCOCCNc1oc(-c2cc(Cl)cc(C)c2Cl)nc1C#N [Compound 36, 2-(2,5-Dichloro-3-methylphenyl)-5-((2-(2-methoxyethoxy)ethyl)amino)oxazole-4-carbonitrile]
1800 | 96 | COCCOCCNc1oc(-c2cc(Cl)cc(C(F)(F)F)c2Cl)nc1C#N [Compound 37, 2-(2,5-Dichloro-3-(trifluoromethyl)phenyl)-5-((2-(2-methoxyethoxy)ethyl)amino)oxazole-4-carbonitrile]
6600 | 100 | COCCOCCNc1oc(-c2cc(C)cc(Cl)c2Cl)nc1C#N [Compound 38, 2-(2,3-Dichloro-5-methylphenyl)-5-((2-(2-methoxyethoxy)ethyl)amino)oxazole-4-carbonitrile]
290 | 94 | COCCNc1oc(-c2cc(Cl)cc(Cl)c2OC(F)F)nc1C#N [Compound 40, 2-(3,5-Dichloro-2-(difluoromethoxy)phenyl)-5-((2-methoxyethyl)amino)oxazole-4-carbonitrile]
170 | 89 | COCCNc1oc(-c2cc(Cl)cc(Cl)c2C)nc1C#N [Compound 41, 2-(3,5-Dichloro-2-methylphenyl)-5-((2-methoxyethyl)amino)oxazole-4-carbonitrile]
350 | 75 | COCCNc1oc(-c2cc(Cl)cc(C(F)(F)F)c2Cl)nc1C#N [Compound 42, 2-(2,5-Dichloro-3-(trifluoromethyl)phenyl)-5-((2-methoxyethyl)amino)oxazole-4-carbonitrile]
> 20000 | – | COCCOC(=O)Nc1oc(-c2cc(Cl)cc(Cl)c2Cl)nc1C#N [Compound 58, 2-Methoxyethyl (4-cyano-2-(2,3,5-trichlorophenyl)oxazol-5-yl)carbamate]
> 20000 | – | COCCOCCOC(=O)Nc1oc(-c2cc(Cl)cc(Cl)c2Cl)nc1C#N [Compound 60, 2-(2-Methoxyethoxy)ethyl (4-cyano-2-(2,3,5-trichlorophenyl)oxazol-5-yl)carbamate]

More lines, now with the values behind:

Structure (SMILES) | IC50 [nM] | Emax [%]
CNc1oc(-c2ccc(Cl)c(Cl)c2Cl)nc1C#N | > 20000 | 49
CNc1oc(-c2c(Cl)ccc(Cl)c2Cl)nc1C#N | > 20000 | 32
CNc1oc(-c2cc(Cl)cc(C)c2Cl)nc1C#N [Compound 6, 2-(2,5-Dichloro-3-methylphenyl)-5-(methylamino)oxazole-4-carbonitrile] | 180 | 99
CNc1oc(-c2cc(Cl)cc(F)c2Cl)nc1C#N [Compound 7] | > 20000 | 37
CNc1oc(-c2cc(Cl)cc(C(F)(F)F)c2Cl)nc1C#N [Compound 8, 2-(2,5-Dichloro-3-(trifluoromethyl)phenyl)-5-(methylamino)oxazole-4-carbonitrile] | 81 | 94
CNc1oc(-c2cc(C)cc(Cl)c2Cl)nc1C#N [Compound 10, 2-(2,3-Dichloro-5-methylphenyl)-5-(methylamino)oxazole-4-carbonitrile] | 380 | 80
CNc1oc(-c2cc(F)cc(Cl)c2Cl)nc1C#N [Compound 11, 2-(2,3-Dichloro-5-fluorophenyl)-5-(methylamino)oxazole-4-carbonitrile] | 870 | 93
CNc1oc(-c2cc(C(F)(F)F)cc(Cl)c2Cl)nc1C#N [Compound 12, 2-(2,3-Dichloro-5-(trifluoromethyl)phenyl)-5-(methylamino)oxazole-4-carbonitrile] | > 20000 | 41
CNc1oc(-c2cc(C#N)cc(Cl)c2Cl)nc1C#N [Compound 13, 2-(2,3-Dichloro-5-cyanophenyl)-5-(methylamino)oxazole-4-carbonitrile] | 1100 | 100
N#Cc1nc(-c2cc(Cl)cc(C(F)(F)F)c2Cl)oc1NCCCCO [Compound 20, 2-(2,5-Dichloro-3-(trifluoromethyl)phenyl)-5-((4-hydroxybutyl)amino)oxazole-4-carbonitrile] | 1500 | 97
Cc1cc(Cl)c(Cl)c(-c2nc(C#N)c(NCCCCO)o2)c1 [Compound 21, 2-(2,3-Dichloro-5-methylphenyl)-5-((4-hydroxybutyl)amino)oxazole-4-carbonitrile] | 8000 | 86
N#Cc1nc(-c2cc(Cl)cc(C(F)(F)F)c2Cl)oc1NCCCCCO [Compound 27, 2-(2,5-Dichloro-3-(trifluoromethyl)phenyl)-5-((5-hydroxypentyl)amino)oxazole-4-carbonitrile] | 550 | 70
CN(C(=O)CC1CCNCC1)c1oc(-c2cc(Cl)cc(Cl)c2Cl)nc1C#N [Compound 53] | > 20000 | –
[2H]C([2H])([2H])N(C(=O)OCCCN(C)C)c1oc(-c2cc(Cl)cc(Cl)c2Cl)nc1C#N [Compound 54, hydrochloride] | > 20000 | –
COCCOC(=O)N(C)c1oc(-c2cc(Cl)cc(Cl)c2Cl)nc1C#N [Compound 55, 2-Methoxyethyl (4-cyano-2-(2,3,5-trichlorophenyl)oxazol-5-yl)(methyl)carbamate] | > 20000 | –
COCCOCCOC(=O)N(C)c1oc(-c2cc(Cl)cc(Cl)c2Cl)nc1C#N [Compound 56, 2-(2-Methoxyethoxy)ethyl (4-cyano-2-(2,3,5-trichlorophenyl)oxazol-5-yl)(methyl)carbamate] | > 20000 | –
CN(C)CCCOC(=O)Nc1oc(-c2cc(Cl)cc(Cl)c2Cl)nc1C#N [Compound 57, 3-(dimethylamino) propyl (4-cyano-2-(2,3,5-trichlorophenyl)oxazol-5-yl) carbamate hydrochloride] | > 20000 | –
CN(C)CCOC(=O)Nc1oc(-c2cc(Cl)cc(Cl)c2Cl)nc1C#N [Compound 59, 2-(Dimethylamino)ethyl (4-cyano-2-(2,3,5-trichlorophenyl)oxazol-5-yl)carbamate hydrochloride] | > 20000 | –
